Assay results as given in patent US5773029A, “High solubility multicomponent inclusion complexes consisting of an acidic drug, a cyclodextrin and a base” (Chiesi Farmaceutici S.p.A., priority 1994, dated 1998).
Values after ≈ are worked out from the molar mass of the structure shown.

Key:
physchem = assay: physchem
From the text: Equilibrium solubility, at room temperature,
at different pH values, of Glibenclamide (G), its
sodium salt (G--Na), and a physical mixture thereof with
βCD (G/βCD) in a 1:1, 1:2, 1:3.
Equilibrium solubility (eq.) and instant solubility
at various times, at room temperature, at different pH values, […]

[1] = Dissolution: glibenclamide concentration versus time at room temperature in buffer (Table 3); type: physicochemical
[2] = cited from earlier work

NS(=O)(=O)c1cc2c(cc1Cl)N=CNS2(=O)=O [Chlorothiazide] gave a solubility thermodynamic (physchem) of 400 to 700 µg/mL (≈ 1350 to 2370 µM).
COc1ccc(Cl)cc1C(=O)NCCc1ccc(S(=O)(=O)NC(=O)NC2CCCCC2)cc1 [G--Na] gave a solubility thermodynamic (physchem; pH 9.3) of 7000 µg/mL (≈ 14200 µM).
For COc1ccc(Cl)cc1C(=O)NCCc1ccc(S(=O)(=O)NC(=O)NC2CCCCC2)cc1 [G, Glibenclamide], the “Glibenclamide concentration by dissolution” value (from here on “Glibenclamide concentration”) ([1]; pH 1.4, 05 min) was < 0.01 mg/mL, the “Glibenclamide concentration” value ([1]; pH 1.4, 15 min) was < 0.01 mg/mL and the “Glibenclamide concentration” value ([1]; pH 1.4, 30 min) was < 0.01 mg/mL. The “Glibenclamide concentration” value ([1]; pH 1.4, 40 min) was < 0.01 mg/mL, the “Glibenclamide concentration” value ([1]; pH 1.4, 50 min) was < 0.01 mg/mL and the “Glibenclamide concentration” value ([1]; pH 5.0, 05 min) was < 0.01 mg/mL. The “Glibenclamide concentration” value ([1]; pH 5.0, 10 min) was < 0.01 mg/mL, the “Glibenclamide concentration” value ([1]; pH 5.0, 20 min) was < 0.01 mg/mL and the “Glibenclamide concentration” value ([1]; pH 5.0, 40 min) was < 0.01 mg/mL. The “Glibenclamide concentration” value ([1]; pH 5.0, 50 min) was < 0.01 mg/mL, the pKa [2] was 6.8 and the solubility thermodynamic (physchem; pH 4) was 4 µg/mL (≈ 8.1 µM). It also gave a solubility thermodynamic (physchem; pH 7.39) of 18.8 µg/mL (≈ 38.1 µM), a solubility thermodynamic (physchem; pH 7.5) of 20 µg/mL (≈ 40.5 µM) and a solubility thermodynamic (physchem; pH 8.89) of 299 µg/mL (≈ 605 µM). For the same compound, the solubility thermodynamic (physchem; pH 9) was 600 µg/mL (≈ 1210 µM) and the solubility thermodynamic (physchem; pH 9.53) was 768 µg/mL (≈ 1550 µM).
Work on CN1C(C(=O)Nc2ccccn2)=C(O)c2ccccc2S1(=O)=O [P, Piroxicam] yielded a solubility thermodynamic (physchem; pH 1.2) of 108 µg/mL (≈ 326 µM), a solubility thermodynamic (physchem; pH 6) of 76 µg/mL (≈ 229 µM) and a solubility thermodynamic (physchem; pH 7) of 570 µg/mL (≈ 1720 µM). It also gave a solubility thermodynamic (physchem; pH 7.5) of 1030 µg/mL (≈ 3110 µM).
